The results in this text go back to patent publication US8613933B2, “Brachyury polypeptides and methods for use” (The United States of America, as represented by the …, priority 2007, dated 2013).

Peptide text beside a SMILES is read from it.

Data set [1] concerns the target T1, HLA-A0201 molecules (Homo sapiens, UniProt P04439, D140Y/D185E/D98H/E176V/E277Q/G131W/G231S/I119V/I121R/I166T/I218V/L300P/L318F/N151K/N90K/P208A/P217A/Q86G/Q94H/R138H/R169H/T345S).
T1 construct: the T2 (HLA-A2+) transport-deletion mutant cell line; endogenous in cells; host or cells: T2 (HLA-A2+) TAP-deficient cells
As to the kind of experiment: HLA-A2 binding assay: HLA-A02 surface expression on T2 cells by flow cytometry. To be noted: 25 μM peptide, compared to positive and negative control peptides. On the procedure:
Binding of Brachyury-specific peptides T-p1, T-p2, T-p3, and T-p4 (SEQ ID NOs: 1-4) to HLA-A0201 molecules was evaluated by flow cytometry analysis of HLA-A02 surface expression on T2 cells. T2 cells (1×10^6) in serum-free Iscove's modified Dulbecco's medium were incubated in the presence of various concentrations of each peptide, in 24-well culture plates at 37° C. with 5% CO2. After 18 hours in culture, T2 cells were harvested, washed with 1× phosphate buffered saline (PBS) (Invitrogen) and stained with 20 μl of a FITC-conjugated anti-HLA-A02-specific monoclonal antibody (MAb) (One Lambda, Inc., Canoga Park, Calif.). A FITC-conjugated IgG2a MAb (BD Biosciences, San Jose, Calif.) was used as an isotype control. […] Results were expressed as mean fluorescence intensity (MFI) collected on a log scale. […] Assuming first order kinetics, the log2 of MFI/MFI0 (MFI is the fluorescence at each time point and MFI0 the initial fluorescence at time 0) was plotted against time (minutes). The decay rate constant was calculated as the slope of the linear regression for each curve and the half-life of each peptide-MHC complex was calculated as […].
In silico-predicted epitopes were then assessed for binding to the MHC molecules in a cell-based assay. […]

The subject of data set [2] is T2 cells. The data set is classed as cell-based, human. Here is the method:
(§1) Target cells were labeled with 50 μCi of ^111Indium-labeled oxyquinoline (Amersham Health, Silver Spring, Md.) for 15 minutes at room temperature. Target cells in medium containing 10% human AB serum were plated at 3×10^3 cells per well, in 96-well rounded-bottom culture plates. Labeled C1R-A2 or T2 cells were incubated with peptides at the indicated concentrations for 60 minutes at 37° C. in 5% CO2 before the addition of effector cells. No peptide was added when carcinoma cells or CD19+ B cells were used as targets. CD8+ T cells negatively isolated from T-cell cultures were used as effector cells, at various effector-to-target (E:T) cell ratios. […] Supernatants were harvested and the ^111In released was measured by gamma counting. Spontaneous release was determined by incubating the target cells with medium alone, and complete lysis by incubating the target cells with 2.5% Triton X-100. All determinations were performed in triplicate, and standard deviations were calculated. Specific lysis was calculated as follows: specific lysis (%)=[(observed release-spontaneous release)/(complete release-spontaneous release)]×100. […] Cytotoxic lysis of normal B lymphocytes was also analyzed since low expression of Brachyury was detectable in CD19+ cells isolated from various healthy donors.

Data set [3] relates to normal donor CD19+ B cells. The data set is classed as cell-based, human. On the procedure: as §1
Data set [4] deals with CD8+ T cells. As to the kind of experiment: IFN-γ ELISA of peptide-induced CD8+ T cells stimulated with peptide-pulsed autologous DCs. The data set is classed as cell-based, human. Particulars: healthy donor, DCs pulsed with 25 μM peptide, three IVS, 24 hours stimulation. From the text: To generate Brachyury-specific cytotoxic T cells (CTLs), peptide-pulsed irradiated (30 Gy) DCs were used as antigen presenting cells (APCs) with autologous, non-adherent cells used as effector cells at an effector-to-APC ratio of 10:1. Cultures were maintained for three initial days in medium containing 10% human AB serum, and four additional days in the same medium supplemented with 20 U/ml of recombinant human IL-2. After a seven-day culture period, designated as an in vitro stimulation (IVS) cycle, cells were re-stimulated as described above.
After three IVS cycles, CD8+ T cells that were negatively isolated by using a CD8+ isolation kit (Miltenyi Biotec, Auburn, Calif.) were stimulated for 24 hours in the presence of peptide-pulsed autologous DCs. Culture supernatants were analyzed for the presence of IFN-γ by using an enzyme linked immunosorbant assay (ELISA) kit (Biosource International Inc., Camarillo, Calif.). Results were expressed in pg/ml.
Irradiated DCs pulsed with 25 μM of each peptide were used to stimulate autologous T cells from a healthy donor's PBMCs. […] Cytotoxic lysis of normal B lymphocytes was also analyzed since low expression of Brachyury was detectable in CD19+ cells isolated from various healthy donors.
(In an ELISA, binding on a coated surface is turned into a signal by an enzyme label.)

On to “AMYSFLLDFV (listed as Homo sapiens) [T-p4]”, for which, in data set [1], the “Binding to HLA-A02 molecules (cell surface MHC stabilization, MFI)” value is “highest binding to T2 cells”.

Turning to `CC(C)C[C@H](NC(=O)[C@@H](NC(=O)[C@H](CO)NC(=O)[C@@H](NC(=O)CNC(=O)[C@@H]1CCCN1C(=O)[C@H](CC(C)C)NC(=O)[C@H](CC(C)C)NC(=O)[C@@H](N)Cc1c[nH]c2ccccc12)[C@@H](C)O)[C@@H](C)O)C(=O)O` [T-p2, WLLPGTSTL] (H-WLLPGTSTL-OH; N-terminus and C-terminus assumed), in data set [2], the “Lowest peptide concentration showing cytotoxic responses of T-p2 CTLs” value was determined as 1 nM. The “Cytotoxic lysis of normal B lymphocytes” value in data set [3] was “No lysis was observed”. For “RLIASWTPV (listed as Homo sapiens) [T-p3]”, the “Binding to HLA-A02 molecules (cell surface MHC stabilization, MFI)” value in data set [1] was “highest binding to T2 cells”. For the same molecule, the “Induction of antigen-specific CTLs releasing IFN-γ upon stimulation with the specific peptide” value in data set [4] is “induced antigen-specific CTLs able to release IFN-γ”.
